PMC7038073, “Substituted Piperazines as Novel Potential Radioprotective Agents” (Molecules, 2020)
Several values for one entry are separate records, joined by “and”; a condition that tells them apart may be missing. Equal entries are not always repeated. Structures can show the parent of a compound that is named as a salt.

Columns and labels:
BALB/c mice = assay: Safe use evaluation in vivo (MTD, symptoms, blood biochemistry, histopathology); parameters: key to piloerection / ataxia / prostration / tremor / excitation / saber-like tail / stooping / hyper/hypoventilation / drop of eyelids / lacrimation / convulsion: + (mild); ++ (moderate); +++ (severe); conditions: for ALP / ALT / AST / Amylase / Creatinine / Glucose / Urea: plasma 48 h after MTD i.p.
Description: (§1) Mild to moderate signs of intoxication could be observed once the MTD (maximum tolerated dose) was reached. In vivo, MTD is described as the highest dose of a given compound that can be administered before showing signs of toxicity (based on the same dose regimen or series) and whose excess would be expected to be fatal, yielding unreliable results. Therefore, a staged approach (including core and intermediate dose levels) has become a suitable strategy in this regard.
(§2) The symptoms described in Tables S1 (in Supplementary Materials) and S2 (in Supplementary Materials) diminished spontaneously within 2 h. After observing these symptoms, MTD thresholds were set at 100, 200, 100, 200, 2000, and 650 mg/kg for compounds 4, 5, 6, 7, 8, and 10, respectively. Animals receiving MTD were further examined by necropsy 48 h after administration. Plasma (reflecting biochemical changes in blood), intestine with mesentery (site of administration), and liver and kidney (elimination organs) were collected to evaluate the toxic potential of the tested compounds. For evaluation of the impact of the compounds on organ function, we performed blood biochemistry test 48 h after administration. The test focused on seven important indicators: glucose and amylase for normal function of pancreas, alanine aminotransferase (ALT), aspartate aminotransferase (AST), and alkaline phosphatase (ALP) for the normal function of liver, and urea and creatinine for the normal function of kidneys. […] According to Thoolen et al., focal necrosis can be occasionally seen in untreated rodents and therefore is not pathognomonic of hepatotoxicity, which is consistent with our findings.
(§3) Both male and female BALB/c mice (Velaz s r.o., Prague, Czech Republic) with an average weight of 21 ± 0.8 g and 21 ± 0.8 g, respectively, were selected for the safe use evaluation in vivo. The mice were housed in environmentally controlled breeding units (Faculty of Military Health Sciences vivarium; temperature 21 ± 1 °C, 12/12 h light/dark cycle) with access to food (Cerea corp., Pardubice, Czech Republic) and water ad libitum. The acclimatization period of the mice was at least 10 days before each experiment. All experimental procedures and protocols were reviewed and approved by the Ethics Committee of the Faculty of Military Health Sciences in Hradec Kralove, University of Defence in Brno. Compounds 2, 3, 4, 5, 6, 7, 8, 9, and 10 were dissolved in physiological saline solution (B. Braun Melsungen AG, Melsungen, Germany) and injected intraperitoneally (i.p.) into the corresponding mouse groups, which were composed of two males and two females. Several doses were administered to determine the maximum tolerated dose (MTD), which was assessed by close observation for signs of toxicity within the first two hours after administration of the compounds, and then regularly over the following 48 h. The observed symptoms were registered according to the laboratory Animal Science Association UK guidelines (for a detailed description, see [36]. After 48 h, the surviving animals were euthanized with CO2 and evaluated by basic macroscopic necropsy. Venous blood was collected into heparinized tubes (Scanlab Systems, Prague, Czech Republic) and the plasma was separated in a U-320R centrifuge (Boeco, Hamburg, Germany) to further evaluate the toxic potential of the tested compounds. The concentrations of glucose, urea, and creatinine and the levels of alanine aminotransferase (ALT), aspartate aminotransferase (AST), alkaline phosphatase (ALP), and amylase were evaluated in a qualified biochemical laboratory of the University Hospital Hradec Kralove (Hradec Kralove, Czech Republic). Additionally, intestine, liver, and kidney samples were collected for histopathologic examination. […]

[1] = as above; parameters: key to piloerection / ataxia / prostration / tremor / excitation / saber-like tail / stooping / hyper/hypoventilation / drop of eyelids / lacrimation / convulsion: + (mild); ++ (moderate); +++ (severe); conditions: both sexes, mouse, in vivo, ip; BALB/c mice, i.p., two males and two females per group; read-out: MTD (maximum tolerated dose)
Description: as §1, §2, §3

[2] = WST-1 cytotoxicity test, HT-29; format: cell-based; conditions: human, HT-29 cells, 48 h, WST-1, mean ± SD of three experiments, read-out: relative viability (%) compared to untreated control; for viability at 48 h, 10 µM: HT-29, 10 µM; for viability at 48 h, 100 µM: HT-29, 100 µM
Protocol: (§4) In this study, the cytotoxic effects of nine new compounds (2, 3, 4, 5, 6, 7, 8, 9, 10) were tested on 10 human cell lines (nine cancer and one non-cancer cell line). The cell lines were treated with each compound at concentrations of 10 µM and 100 µM for 48 h. The proliferation capacity of the treated cells was determined by WST-1 test and compared against the proliferation rate of the untreated control cells (100%).
(§5) The cell lines Jurkat, MOLT-4, A2780, A549, HT-29, PANC-1, HeLa, MCF-7, SAOS-2, and MRC-5 (all purchased from Sigma Aldrich, Czech Republic) were included in this study. All cell lines were maintained according to the provider’s guidelines, and plated and treated in 96-well plates (500 to 30 × 10^3 cells per well). The tested compounds 2, 3, 4, 5, 6, 7, 8, 9, and 10 were dissolved in 0.1% DMSO and kept in 10 mM stock solutions. Before use, the stock solution was diluted in culture media at ratios of 1:100 and 1:1000. The studied cell lines were treated with the compounds 2, 3, 4, 5, 6, 7, 8, 9, and 10 at concentrations of 10 and 100 µM for 48 h. Control cells were tested in culture media with and without DMSO (0.1%). The cells were also treated with 1 µM doxorubicin as a cytotoxicity control.
(§6) The WST-1 (2-(4-iodophenyl)-3-(4-nitrophenyl)-5-(2,4-disulfophenyl)-2H-tetrazolium, monosodium salt) test (Roche, Mannheim, Germany) was used according to the manufacturer’s protocol to determine cell viability in all 10 cell lines 48 h after treatment with the tested compounds. The cells were analyzed in a Tecan Infinite M200 spectrometer (Tecan Group, Männedorf, Switzerland) at 440 nm.

[3] = WST-1 cytotoxicity test, PANC-1; format: cell-based; conditions: human, PANC-1 cells, 48 h, WST-1, mean ± SD of three experiments, read-out: relative viability (%) compared to untreated control; for viability at 48 h, 10 µM: PANC-1, 10 µM; for viability at 48 h, 100 µM: PANC-1, 100 µM
Protocol: as §4, §5, §6

[4] = female BALB/c mice, animals 1 and 2
[5] = female mice, at MTD i.p., animals 1 and 2
[6] = male BALB/c mice, animals 1 and 2
[7] = male mice, at MTD i.p., animals 1 and 2

Row | Compound | ALP (BALB/c mice; [4]) | ALT (BALB/c mice; [4]) | AST (BALB/c mice; [4]) | Amylase (BALB/c mice; [4]) | Creatinine (BALB/c mice; [4]) | Glucose (BALB/c mice; [4]) | Urea (BALB/c mice; [4]) | excitation (BALB/c mice; [5]) | tremor (BALB/c mice; [5]) | ALP (BALB/c mice; [6]) | ALT (BALB/c mice; [6]) | AST (BALB/c mice; [6]) | Amylase (BALB/c mice; [6]) | Creatinine (BALB/c mice; [6]) | Glucose (BALB/c mice; [6]) | Urea (BALB/c mice; [6]) | excitation (BALB/c mice; [7]) | tremor (BALB/c mice; [7]) | MTD at 48 h [1] | viability at 48 h, 10 µM [2] | other results
1 | OCCN1CCN(CC(O)CN2CCN(CCO)CC2)CC1 [Compound 8, 1.3-bis [4-(2-hydroxyethyl)piperazin-1-yl)propan-2-ol tetrahydrochloride] | 121 U/L and 81 U/L | 20 U/L and 23 U/L | 78 U/L and 67 U/L | 1798 U/L and 2455 U/L | 79 µg/dL | 171 mg/dL and 210 mg/dL | 35 mg/dL and 40 mg/dL | + | + | 71 U/L and 82 U/L | 26 U/L and 22 U/L | 65 U/L and 56 U/L | 2674 U/L and 2327 U/L | 57 µg/dL and 56 µg/dL | 202 mg/dL and 249 mg/dL | 41 mg/dL and 37 mg/dL | + | + | 2000 mg/kg | 101 ± 1% | weight at 24 h (%) (BALB/c mice; [7]): -3.8%; weight at 48 h (%) (BALB/c mice; [7]): -2.9%; viability at 48 h, 100 µM [2]: 154 ± 11%; viability at 48 h, 10 µM [3]: 98 ± 9%; viability at 48 h, 100 µM [3]: 117 ± 11%
2 | Cl.Cl.Cl.OCCN1CCN(CC(O)CNc2ccccc2)CC1 (stereo not drawn) [Compound 10, 1-(phenylamino]-3-[4-(2-hydroxyethyl)piperazin-1-yl)propan-2-ol trihydrochloride] | 67 U/L and 73 U/L | 27 U/L and 24 U/L | 55 U/L and 56 U/L | 1939 U/L and 1826 U/L | 68 µg/dL and 67 µg/dL | 225 mg/dL and 178 mg/dL | 38 mg/dL | + | + | 42 U/L and 61 U/L | 24 U/L and 30 U/L | 58 U/L and 51 U/L | 2212 U/L and 2080 U/L | 34 µg/dL | 189 mg/dL and 236 mg/dL | 47 mg/dL and 43 mg/dL | + | + | 650 mg/kg | 104 ± 11% | histopathological change: focal necrosis (BALB/c mice; at MTD i.p., necropsy 48 h after administration, one animal each): five small foci; ataxia (BALB/c mice; [5]): +; convulsion (BALB/c mice; [5]): +; hyper/hypoventilation (BALB/c mice; [5]): +; prostration (BALB/c mice; [5]): ++; weight at 24 h (%) (BALB/c mice; [5]): -1.5% and -5.6%; ataxia (BALB/c mice; [7]): +; hyper/hypoventilation (BALB/c mice; [7]): +; prostration (BALB/c mice; [7]): ++; viability at 48 h, 100 µM [2]: 113 ± 2%; viability at 48 h, 10 µM [3]: 95 ± 7%; viability at 48 h, 100 µM [3]: 111 ± 6%
